US11261211B2, “19-NOR neuroactive steroids and methods of use thereof” (Sage Therapeutics, Inc., priority 2013, dated 2022)

Biological target: α1β2γ2 GABAA receptor (Homo sapiens (Human), UniProt P14867+P47870)
Experiment: Patch clamp electrophysiology of recombinant α1β2γ2 GABAA receptors in LTK cells
Type: cell-based
Conditions: for activity at 10 µM / Emax: LTK; for activity at 10 µM / α1β2γ2 GABA Qpatch in Ltk (Efficacy at 10 μm): 10 μM compound, Qpatch, Ltk cells, GABA EC20 2 μM; for activity at 10 µM: read-out: α1β2γ2 GABA Qpatch in Ltk (Efficacy at 10 μm); for Emax / EC50: potentiation of GABA EC20 (2 μM) current; for Emax: read-out: GABAa alpha1 (α1β2γ2) Emax (%); for EC50: read-out: GABAa alpha1 (α1β2γ2)EC50
Procedure: Cellular electrophysiology is used to measure the pharmacological properties of our GABAA receptor modulators in heterologous cell systems. Each compound is tested for its ability to affect GABA mediated currents at a submaximal agonist dose (GABA EC20=2 μM). LTK cells are stably transfected with the α1β2γ2 subunits of the GABA receptor and CHO cells are transiently transfected with the α4β3δ subunits via the Lipofecatamine method. Cells were passaged at a confluence of about 50-80% and then seeded onto 35 mm sterile culture dishes containing 2 ml culture complete medium without antibiotics or antimycotics. Confluent clusters of cells are electrically coupled (Pritchett et al., 1988). Because responses in distant cells are not adequately voltage clamped and because of uncertainties about the extent of coupling (Verdoorn et al., 1990), cells were cultivated at a density that enables the recording of single cells (without visible connections to other cells).
Whole cell currents were measured with HEKA EPC-10 amplifiers using PatchMaster software or by using the high throughput QPatch platform (Sophion). Bath solution for all experiments contained (in mM): NaCl 137 mM, KCl 4 mM, CaCl2 1.8 mM, MgCl2 1 mM, HEPES 10 mM, D-Glucose 10 mM, pH (NaOH) 7.4. In some cases 0.005% cremophor was also added. Intracellular (pipette) solution contained: KCl 130 mM, MgCl2 1 mM, Mg-ATP 5 mM, HEPES 10 mM, EGTA 5 mM, pH 7.2. During experiments, cells and solutions were maintained at room temperature (19° C.-30° C.). For manual patch clamp recordings, cell culture dishes were placed on the dish holder of the microscope and continuously perfused (1 ml/min) with bath solution. After formation of a Gigaohm seal between the patch electrodes and the cell (pipette resistance range: 2.5 MΩ-6.0 MΩ; seal resistance range: >1 GΩ) the cell membrane across the pipette tip was ruptured to assure electrical access to the cell interior (whole-cell patch-configuration). For experiments using the QPatch system, cells were transferred as suspension to the QPatch system in the bath solution and automated whole cell recordings were performed.
Cells were voltage clamped at a holding potential of −80 mV. For the analysis of test articles, GABA receptors were stimulated by 2 μM GABA after sequential pre-incubation of increasing concentrations of the test article. Pre-incubation duration was 30 s and the duration of the GABA stimulus was 2 s. Test articles were dissolved in DMSO to form stock solutions (10 mM). Test articles were diluted to 0.01, 0.1, 1, and 10 μM in bath solution. All concentrations of test articles were tested on each cell. The relative percentage potentiation was defined as the peak amplitude in response to GABA EC20 in the presence of the test article divided by the peak amplitude in response to GABA EC20 alone, multiplied by 100.

| Structure (SMILES) | activity at 10 µM [%] | also measured |
| --- | --- | --- |
| C[C@@]1(O)CC[C@H]2[C@H](CC[C@@H]3[C@@H]2CC[C@]2(C)[C@@H](C(=O)Cn4nnc5ccccc54)CC[C@@H]32)C1 [SA-1] | > 500 | Emax: 500 to 1000%; EC50: 500 to 1000 nM |
| C[C@@]1(O)CC[C@H]2[C@H](CC[C@@H]3[C@@H]2CC[C@]2(C)[C@@H](C(=O)Cn4ncc5ncccc54)CC[C@@H]32)C1 [SA-3] |  | α1β2γ2 GABA Qpatch in Ltk (Efficacy at 10 μm): C (“C” indicates an efficacy value of >500%); Emax: 500 to 1000%; EC50: 1000 to 2000 nM |
| C[C@@]1(O)CC[C@H]2[C@H](CC[C@@H]3[C@@H]2CC[C@]2(C)[C@@H](C(=O)Cn4ncc5ccccc54)CC[C@@H]32)C1 [SA-5] |  | α1β2γ2 GABA Qpatch in Ltk (Efficacy at 10 μm): C (“C” indicates an efficacy value of >500%); Emax: 500 to 1000%; EC50: 1000 to 2000 nM |
| C[C@@]1(O)CC[C@H]2[C@H](CC[C@@H]3[C@@H]2CC[C@]2(C)[C@@H](C(=O)Cn4ncc5c4CCCC5)CC[C@@H]32)C1 [SA-8] |  | α1β2γ2 GABA Qpatch in Ltk (Efficacy at 10 μm): B (“B” indicates an efficacy value of >100-500%); Emax: 0 to 500%; EC50: 1000 to 2000 nM |
| C[C@@]1(O)CC[C@H]2[C@H](CC[C@@H]3[C@@H]2CC[C@]2(C)[C@@H](C(=O)Cn4ncc5cnccc54)CC[C@@H]32)C1 [SA-9] |  | α1β2γ2 GABA Qpatch in Ltk (Efficacy at 10 μm): B (“B” indicates an efficacy value of >100-500%) |
| C[C@@]1(O)CC[C@H]2[C@H](CC[C@@H]3[C@@H]2CC[C@]2(C)[C@@H](C(=O)Cn4cc5cnccc5n4)CC[C@@H]32)C1 [SA-10] |  | α1β2γ2 GABA Qpatch in Ltk (Efficacy at 10 μm): C (“C” indicates an efficacy value of >500%) |
| C[C@@]1(O)CC[C@H]2[C@H](CC[C@@H]3[C@@H]2CC[C@]2(C)[C@@H](C(=O)Cn4nnc5cnccc54)CC[C@@H]32)C1 [SA-12] | 100 to 500 |  |
| C[C@@]1(O)CC[C@H]2[C@H](CC[C@@H]3[C@@H]2CC[C@]2(C)[C@@H](C(=O)Cn4nnc5ncccc54)CC[C@@H]32)C1 [SA-13] | > 500 |  |
| C[C@@]1(O)CC[C@H]2[C@H](CC[C@@H]3[C@@H]2CC[C@]2(C)[C@@H](C(=O)Cn4nnc5cccnc54)CC[C@@H]32)C1 [SA-15] | > 500 |  |
| C[C@@]1(O)CC[C@H]2[C@H](CC[C@@H]3[C@@H]2CC[C@]2(C)[C@@H](C(=O)Cn4ncc5cc(F)ccc54)CC[C@@H]32)C1 [SA-17] | 100 to 500 |  |
| C[C@@]1(O)CC[C@H]2[C@H](CC[C@@H]3[C@@H]2CC[C@]2(C)[C@@H](C(=O)Cn4ncc5cccnc54)CC[C@@H]32)C1 [SA-19] |  | α1β2γ2 GABA Qpatch in Ltk (Efficacy at 10 μm): B (“B” indicates an efficacy value of >100-500%); Emax: 500 to 1000%; EC50: > 2000 nM |
| C[C@@]1(O)CC[C@H]2[C@H](CC[C@@H]3[C@@H]2CC[C@]2(C)[C@@H](C(=O)Cn4ncc5ccncc54)CC[C@@H]32)C1 [SA-21] |  | α1β2γ2 GABA Qpatch in Ltk (Efficacy at 10 μm): B (“B” indicates an efficacy value of >100-500%) |
| C[C@@]1(O)CC[C@H]2[C@H](CC[C@@H]3[C@@H]2CC[C@]2(C)[C@@H](C(=O)Cn4ncc5ccc(F)cc54)CC[C@@H]32)C1 [SA-23] | > 500 |  |
| Cc1cc2cnn(CC(=O)[C@H]3CC[C@H]4[C@@H]5CC[C@@H]6C[C@](C)(O)CC[C@@H]6[C@H]5CC[C@]34C)c2cn1 [SA-25] | > 500 |  |
| C[C@@]1(O)CC[C@H]2[C@H](CC[C@@H]3[C@@H]2CC[C@]2(C)[C@@H](C(=O)Cn4ncc5ncc(Cl)cc54)CC[C@@H]32)C1 [SA-27] | > 500 |  |
| C[C@@]1(O)CC[C@H]2[C@H](CC[C@@H]3[C@@H]2CC[C@]2(C)[C@@H](C(=O)Cn4ncc5nccnc54)CC[C@@H]32)C1 [SA-29] | 100 to 500 |  |
| C[C@@]1(O)CC[C@H]2[C@H](CC[C@@H]3[C@@H]2CC[C@]2(C)[C@@H](C(=O)Cn4ncc5ncncc54)CC[C@@H]32)C1 [SA-33] | 100 to 500 |  |
| C[C@@]1(O)CC[C@H]2[C@H](CC[C@@H]3[C@@H]2CC[C@]2(C)[C@@H](C(=O)Cn4ncc5cncnc54)CC[C@@H]32)C1 [SA-36] | > 500 |  |
| C[C@@]1(O)CC[C@H]2[C@H](CC[C@@H]3[C@@H]2CC[C@]2(C)[C@@H](C(=O)Cn4cc5cc(C#N)ccc5n4)CC[C@@H]32)C1 [SA-37] | > 500 |  |
| C[C@@]1(O)CC[C@H]2[C@H](CC[C@@H]3[C@@H]2CC[C@]2(C)[C@@H](C(=O)Cn4ncc5cc(C#N)ccc54)CC[C@@H]32)C1 [SA-38] | > 500 |  |
| C[C@@]1(O)CC[C@H]2[C@H](CC[C@@H]3[C@@H]2CC[C@]2(C)[C@@H](C(=O)Cn4nnc5ccc(Cl)cc54)CC[C@@H]32)C1 [SA-39] | 100 to 500 |  |

| Structure (SMILES) | activity at 10 µM [%] | also measured |
| --- | --- | --- |
| C[C@@]1(O)CC[C@H]2[C@H](CC[C@@H]3[C@@H]2CC[C@]2(C)[C@@H](C(=O)Cn4nnc5cc(Cl)ccc54)CC[C@@H]32)C1 [SA-40] | 100 to 500 |  |
| Cc1ccc2nnn(CC(=O)[C@H]3CC[C@H]4[C@@H]5CC[C@@H]6C[C@](C)(O)CC[C@@H]6[C@H]5CC[C@]34C)c2c1 [SA-42] | 100 to 500 |  |
| Cc1ccc2c(c1)nnn2CC(=O)[C@H]1CC[C@H]2[C@@H]3CC[C@@H]4C[C@](C)(O)CC[C@@H]4[C@H]3CC[C@]12C [SA-43] | 100 to 500 |  |
| Cc1nn(CC(=O)[C@H]2CC[C@H]3[C@@H]4CC[C@@H]5C[C@](C)(O)CC[C@@H]5[C@H]4CC[C@]23C)c2ccccc12 [SA-45] | > 500 |  |
| Cc1c2ccccc2nn1CC(=O)[C@H]1CC[C@H]2[C@@H]3CC[C@@H]4C[C@](C)(O)CC[C@@H]4[C@H]3CC[C@]12C [SA-46] | > 500 |  |
| COc1ccc2nn(CC(=O)[C@H]3CC[C@H]4[C@@H]5CC[C@@H]6C[C@](C)(O)CC[C@@H]6[C@H]5CC[C@]34C)nc2c1 [SA-47] | > 500 |  |
| C[C@@]1(O)CC[C@H]2[C@H](CC[C@@H]3[C@@H]2CC[C@]2(C)[C@@H](C(=O)Cn4nc5ccccc5c4O)CC[C@@H]32)C1 [SA-54] | > 500 |  |
| C[C@@]1(O)CC[C@H]2[C@H](CC[C@@H]3[C@@H]2CC[C@]2(C)[C@@H](C(=O)Cn4nc(Cl)c5ccccc54)CC[C@@H]32)C1 [SA-55] | 100 to 500 |  |
| C[C@@]1(O)CC[C@H]2[C@H](CC[C@@H]3[C@@H]2CC[C@]2(C)[C@@H](C(=O)Cn4nnc5ncc(Cl)cc54)CC[C@@H]32)C1 [SA-56] | 100 to 500 |  |
| C[C@@]1(O)CC[C@H]2[C@H](CC[C@@H]3[C@@H]2CC[C@]2(C)[C@@H](C(=O)Cn4nc5ccc(F)cc5n4)CC[C@@H]32)C1 [SA-62] | 100 to 500 |  |
| C[C@@]1(O)CC[C@H]2[C@H](CC[C@@H]3[C@@H]2CC[C@]2(C)[C@@H](C(=O)Cn4nnc5c(F)cccc54)CC[C@@H]32)C1 [SA-64] | 100 to 500 |  |
| C[C@@]1(O)CC[C@H]2[C@H](CC[C@@H]3[C@@H]2CC[C@]2(C)[C@@H](C(=O)Cn4nnc5cccc(F)c54)CC[C@@H]32)C1 [SA-65] | > 500 |  |
| Cc1cccc2c1nnn2CC(=O)[C@H]1CC[C@H]2[C@@H]3CC[C@@H]4C[C@](C)(O)CC[C@@H]4[C@H]3CC[C@]12C [SA-67] | > 500 |  |
| C[C@@]1(O)CC[C@H]2[C@H](CC[C@@H]3[C@@H]2CC[C@]2(C)[C@@H](C(=O)Cn4nc5ccc(OC(F)(F)F)cc5n4)CC[C@@H]32)C1 [SA-72] | > 500 |  |
| COc1cccc2nnn(CC(=O)[C@H]3CC[C@H]4[C@@H]5CC[C@@H]6C[C@](C)(O)CC[C@@H]6[C@H]5CC[C@]34C)c12 [SA-73] | 100 to 500 |  |
| COc1cccc2c1nnn2CC(=O)[C@H]1CC[C@H]2[C@@H]3CC[C@@H]4C[C@](C)(O)CC[C@@H]4[C@H]3CC[C@]12C [SA-74] | 100 to 500 |  |
| COc1cccc2nn(CC(=O)[C@H]3CC[C@H]4[C@@H]5CC[C@@H]6C[C@](C)(O)CC[C@@H]6[C@H]5CC[C@]34C)nc12 [SA-75] | 100 to 500 |  |
| C[C@@]1(O)CC[C@H]2[C@H](CC[C@@H]3[C@@H]2CC[C@]2(C)[C@@H](C(=O)Cn4nnc5c(Cl)cccc54)CC[C@@H]32)C1 [SA-76] | > 500 |  |
| C[C@@]1(O)CC[C@H]2[C@H](CC[C@@H]3[C@@H]2CC[C@]2(C)[C@@H](C(=O)Cn4nnc5cccc(Cl)c54)CC[C@@H]32)C1 [SA-77] | > 500 |  |
| C[C@]12CC[C@H]3[C@@H](CC[C@@H]4C[C@@](O)(CF)CC[C@@H]43)[C@@H]1CC[C@@H]2C(=O)Cn1nnc2ccccc21 [SA-79] | > 500 |  |
